Test [1] has as its target T1, BRD4 bromo domain 1 [BRD4(1)] (Homo sapiens, UniProt O60885).
T1 construct: N-terminally His6-tagged BRD4(1) (amino acids 67-152); made in house; host or cells: E. coli
The test can be described thus: BRD4(1)/acetylated peptide H4 TR-FRET binding assay. The note with it: His6-BRD4(1) (aa 67-152) vs acetylated histone H4 peptide. The source says:
To assess the BRD4(1) binding strength of the substances described in this application, the ability thereof to inhibit the interaction between BRD4(1) and acetylated histone H4 in a dose-dependent manner was quantified.
(§1) For this purpose, a time-resolved fluorescence resonance energy transfer (TR-FRET) assay was used, which measures the binding between N-terminally His6-tagged BRD4(1) (amino acids 67-152) and a synthetic acetylated histone H4 (Ac-H4) peptide with sequence GRGK(Ac)GGK(Ac)GLGK(Ac)GGAK(Ac)RHGSGSK-biotin. The recombinant BRD4(1) protein produced in-house according to Filippakopoulos et al., Cell, 2012, 149:214-231 was expressed in E. coli and purified by means of (Ni-NTA) affinity and (Sephadex G-75) size exclusion chromatography. The Ac-H4 peptide can be purchased, for example, from Biosyntan (Berlin, Germany).
(§2) In the assay, typically 11 different concentrations of each substance (0.1 nM, 0.33 nM, 1.1 nM, 3.8 nM, 13 nM, 44 nM, 0.15 μM, 0.51 μM, 1.7 μM, 5.9 μM and 20 μM) were analysed as duplicates on the same microtitre plate. For this purpose, 100-fold concentrated solutions in DMSO were prepared by serial dilutions (1:3.4) of a 2 mM stock solution into a clear, 384-well microtitre plate (Greiner Bio-One, Frickenhausen, Germany). From this, 50 nl were transferred into a black test plate (Greiner Bio-One, Frickenhausen, Germany). The test was started by the addition of 2 μl of a 2.5-fold concentrated BRD4(1) solution (final concentration typically 10 nM in the 5 μl of reaction volume) in aqueous assay buffer [50 mM HEPES pH 7.5, 50 mM sodium chloride (NaCl), 0.25 mM CHAPS and 0.05% serum albumin (BSA)] to the substances in the test plate. This was followed by a 10-minute incubation step at 22° C. for the pre-equilibration of putative complexes between BRD4(1) and the substances. Subsequently, 3 μl of a solution of 1.67 times the concentration (in assay buffer) consisting of Ac-H4 peptide (83.5 nM) and TR-FRET detection reagents [16.7 nM anti-6His-XL665 and 3.34 nM streptavidin cryptate (both from Cisbio Bioassays, Codolet, France), and 668 mM potassium fluoride (KF)] were added.
(§3) The mixture was then incubated in the dark at 22° C. for one hour and then at 4° C. for at least 3 hours and for no longer than overnight. The formation of BRD4(1)/Ac-H4 complexes was determined by the measurement of the resonance energy transfer from the streptavidin-Eu cryptate to the anti-6His-XL665 antibody present in the reaction. For this purpose, the fluorescence emission was measured at 620 nm and 665 nm after excitation at 330-350 nm in a TR-FRET measuring instrument, for example a Rubystar or Pherastar (both from BMG Lab Technologies, Offenburg, Germany) or a Viewlux (Perkin-Elmer). The ratio of the emissions at 665 nm and at 622 nm was taken as an indicator of the amount of BRD4(1)/Ac-H4 complexes formed.
The data (ratios) obtained were normalized, with 0% inhibition corresponding to the mean from the measurements for a set of controls (typically 32 data points) in which all the reagents were present. In these, in place of test substances, 50 nl of DMSO (100%) were used. Inhibition of 100% corresponded to the mean from the measurements for a set of controls (typically 32 data points) in which all the reagents except BRD4(1) were present. The IC50 was determined by regression analysis based on a 4-parameter equation (minimum, maximum, IC50, Hill; Y=Max+(Min−Max)/(1+(X/IC50)Hill).
On the technique in general: TR-FRET usually uses a lanthanide donor and a delayed reading to cut background.

Test [2] addresses T2, BRD4 bromo domain 2 [BRD4(2)] (Homo sapiens, UniProt O60885).
T2 construct: N-terminally His6-tagged BRD4(2) (amino acids 357-445); made in house; host or cells: E. coli
In words: BRD4(2)/acetylated peptide H4 TR-FRET binding assay. The note with it: His6-BRD4(2) (aa 357-445) vs acetylated histone H4 peptide.
From the text: To assess the BRD4(2) binding strength of the substances described in this application, the ability thereof to inhibit the interaction between BRD4(2) and acetylated histone H4 in a dose-dependent manner was quantified.
as §1, with “BRD4(2)” for “BRD4(1)”, “357-445)” for “67-152)”, “SGRGK(Ac)GGK(Ac)GLGK(Ac)GGAK(Ac)RHRKVLRDNGSGSK-biotin.” for “GRGK(Ac)GGK(Ac)GLGK(Ac)GGAK(Ac)RHGSGSK-biotin.”
as §2, with “concentrated BRD4(2)” for “concentrated BRD4(1)”, “typically 100” for “typically 10”, “chloride (NaCl); 50 mM potassium fluoride (KF);” for “chloride (NaCl),”, “between BRD4(2)” for “between BRD4(1)”, “substances.” for “substances. Subsequently, 3 μl of a solution of 1.67 times the concentration (in assay buffer) consisting of Ac-H4 peptide (83.5 nM) and TR-FRET detection reagents [16.7 nM anti-6His-XL665 and 3.34 nM streptavidin cryptate (both from Cisbio Bioassays, Codolet, France), and 668 mM potassium fluoride (KF)] were added.”
as §3, with “BRD4(2)/Ac-H4” for “BRD4(1)/Ac-H4”, “chelate” for “cryptate”
The data (ratios) obtained were normalized, with 0% inhibition corresponding to the mean from the measurements for a set of controls (typically 32 data points) in which all the reagents were present. In these, in place of test substances, 50 nl of DMSO (100%) were used. Inhibition of 100% corresponded to the mean from the measurements for a set of controls (typically 32 data points) in which all the reagents except BRD4(2) were present. The IC50 was determined by regression analysis based on a 4-parameter equation (minimum, maximum, IC50, Hill; Y=Max+(Min−Max)/(1+(X/IC50)Hill)).

Another test relates to MOLM-13 cells. The test can be described thus: Cell proliferation assay MOLM-13, method 2 (CellTiterGlo). The note with it: Homo sapiens, MOLM-13, 72 h; acute myeloid leukaemia cells, 500 cells/well, 1536-well, 3-day incubation, CellTiterGlo ATP readout. In kind it is cell-based. As for the experimental part:
Alternatively, the MOLM-13 cells (DSMZ, ACC 554) were seeded at a concentration of 500 cells/well in 5 μl of growth medium (RPMI1640, 10% FCS) on 1536-well microtitre plates (method 2).
In method 2, after 3-day incubation with the inhibitor, the ATP concentration was determined as readout for the cell number using the CellTiterGlo kit (Promega). The measurement was carried out using a luminometer.
The substances were tested in the cell lines in Table 2, which represent the indications specified by way of example: […]
(In general: In ATP-based viability assays light output follows the ATP content of the culture.)

pIC50: −log10 of the molar value. A value given as a limit tells only on which side of the number the result lay.

The source of these data is patent US20170121322A1, “BET-PROTEIN INHIBITING 3,4-DIHYDROPYRIDO[2,3-B]PYRAZINONES WITH META-SUBSTITUTED AROMATIC AMINO- OR ETHER GROUPS” (Bayer Pharma Aktiengesellschaft, priority 2014, published 2017).

As usually defined, the pIC50 is the IC50 on a negative log10 scale, so that one unit is a factor of ten. High values mean a small IC50, low ones a large IC50. `C[C@@H]1C(=O)N(C)c2ccc(Nc3cccc(N4CCN(C)CC4)c3)nc2N1C1CCOCC1` [Example 41, (3R)-1,3-Dimethyl-6-{[3-(4-methylpiperazin-1-yl)phenyl]amino}-4-(tetrahydro-2H-pyran-4-yl)-3,4-dihydropyrido[2,3-b]pyrazin-2(1H)-one]: the results for the negative logarithm of the IC50 (pIC50) (in test [1]; in test [2]; in the test with MOLM-13 cells) were 6.88, 6.20 and 6.15, respectively.
The matching figures for `C[C@@H]1C(=O)N(C)c2ccc(Nc3cccc(S(C)(=N)=O)c3)nc2N1C1CCOCC1` (stereo partly drawn) [Example 44, (3R)-1,3-Dimethyl-6-{[3-(S-methylsulphonimidoyl)phenyl]amino}-4-(tetrahydro-2H-pyran-4-yl)-3,4-dihydropyrido[2,3-b]pyrazin-2(1H)-one]: 5.44, 5.13 and less than 5.00.
